Measurements published in ChEMBL document CHEMBL1125494, “A molecular modeling study of the interactions between the antiestrogen drug tamoxifen and several derivatives, and the calcium-binding protein calmodulin” (J Med Chem, 1992).

Experiment: Inhibition of calmodulin dependent cAMP phosphodiesterase.

Row | Compound | IC50
1 | CCC(=C(c1ccc(O)cc1)c1ccc(OCCN(C)C)cc1)c1ccccc1 | 19 µM
2 | CC/C(=C(\c1ccc(I)cc1)c1ccc(OCCN(C)C)cc1)c1ccccc1 | 2.3 µM
3 | C/C(=C(\c1ccccc1)c1ccc(OCCN(C)C)cc1)c1ccccc1 | 20 µM

Continued, values first:

Row | IC50 | Compound
4 | 10 µM | CC/C(=C(\c1ccccc1)c1ccc(OCCN(CC)CC)cc1)c1ccccc1
5 | > 50 µM | CC/C(=C(\c1ccccc1)c1ccc(OCCN2CCNCC2)cc1)c1ccccc1
6 | 6.75 µM | CC/C(=C(\c1ccccc1)c1ccc(OCCN(C)C)cc1)c1ccccc1 [TAMOXIFEN]
